Assay results reported in ChEMBL document CHEMBL1201862, “PubChem BioAssay data set” (2004).
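Values below derive from 48-hour exposures of cells grown in 96-well plates, with endpoints linearly interpolated between the two concentrations bracketing the appropriate inhibition level. The concentration for 50% growth inhibition is given as GI50.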 Active and inactive are the calls of the source. Cut-off read from the data, not from the text of the source: active = GI50 up to about 1.1 µM and inactive = higher.

Legend:
Experiment in all cases: growth of human tumour cells (NCI), 48 h
ACHN = tested on: ACHN
CAKI-1 = tested on: CAKI-1
HCT-116 = tested on: HCT-116
HL-60 = tested on: HL-60
HOP-92 = tested on: HOP-92
HT-29 = tested on: HT-29
KM12 = tested on: KM12
M14 = tested on: M14
Malme-3M = tested on: Malme-3M
NCI-H226 = tested on: NCI-H226
NCI-H460 = tested on: NCI-H460
NCI-H522 = tested on: NCI-H522
NCI/ADR-RES = tested on: NCI/ADR-RES
OVCAR-5 = tested on: OVCAR-5
SF-539 = tested on: SF-539
SK-MEL-28 = tested on: SK-MEL-28
SN12C = tested on: SN12C
T47D = tested on: T47D
TK-10 = tested on: TK-10
UACC-62 = tested on: UACC-62

Measured: GI50

Cc1cccc(-c2cc(O)c3c(C)cc(C)nc3n2)c1
active: HL-60 0.838 µM | KM12 0.745 µM | NCI-H522 0.658 µM
inactive: ACHN 8.3 µM | CAKI-1 5.66 µM | HCT-116 2.04 µM | HOP-92 35.4 µM | HT-29 2.12 µM | M14 2.29 µM | Malme-3M 2.31 µM | NCI-H226 3.59 µM | NCI-H460 2.95 µM | NCI/ADR-RES 1.65 µM | OVCAR-5 5.15 µM | SF-539 2.75 µM | SK-MEL-28 13.1 µM | SN12C 8.91 µM | T47D 3.96 µM | TK-10 16.1 µM | UACC-62 4.14 µM

Cc1ccc(S(=O)(=O)Nc2ccccc2C=O)cc1
active: SF-539 0.569 µM
inactive: ACHN 17.7 µM | CAKI-1 23.9 µM | HCT-116 14.8 µM | HL-60 11 µM | HOP-92 2.35 µM | HT-29 22.8 µM | KM12 16.1 µM | M14 19.3 µM | Malme-3M 14.7 µM | NCI-H226 14.6 µM | NCI-H460 19.8 µM | NCI-H522 29 µM | NCI/ADR-RES 14.6 µM | OVCAR-5 25.1 µM | SK-MEL-28 21.3 µM | SN12C 16.1 µM | T47D 14.9 µM | TK-10 17.9 µM | UACC-62 12.5 µM

Nc1nc(-c2ccccc2)c(-c2ccccc2)c(-c2nc(N)nc(-c3ccccc3)c2-c2ccccc2)n1
inactive: ACHN > 100 µM | CAKI-1 > 100 µM | HCT-116 > 100 µM | HL-60 > 100 µM | HOP-92 > 100 µM | HT-29 62.1 µM | KM12 > 100 µM | M14 > 100 µM | Malme-3M > 100 µM | NCI-H226 > 100 µM | NCI-H460 74.3 µM | NCI-H522 57.9 µM | NCI/ADR-RES > 100 µM | OVCAR-5 > 100 µM | SF-539 > 100 µM | SK-MEL-28 > 100 µM | SN12C > 100 µM | T47D 49.7 µM | TK-10 > 100 µM | UACC-62 85.3 µM

Oc1ccccc1/C=N/N1C(=S)N(c2ccccc2)C(=N\c2ccccc2)/C1=N/c1ccccc1
inactive: ACHN 2.41 µM | CAKI-1 12.4 µM | HCT-116 11.6 µM | HL-60 30 µM | HOP-92 4.57 µM | HT-29 3.63 µM | KM12 46.3 µM | M14 15.1 µM | Malme-3M 22.4 µM | NCI-H226 11.6 µM | NCI-H460 12.4 µM | NCI-H522 3.89 µM | NCI/ADR-RES 13.6 µM | OVCAR-5 34 µM | SF-539 4.81 µM | SK-MEL-28 26.8 µM | SN12C 12.4 µM | T47D 15.9 µM | TK-10 8.28 µM | UACC-62 13.9 µM

O=C1Nc2ccccc2S/C1=C\c1ccccc1C(F)(F)F
inactive: ACHN 15.1 µM | CAKI-1 68.9 µM | HCT-116 > 100 µM | HL-60 4.2 µM | HOP-92 5.38 µM | HT-29 > 100 µM | KM12 > 100 µM | M14 > 100 µM | Malme-3M > 100 µM | NCI-H226 > 100 µM | NCI-H460 94.6 µM | NCI-H522 30.5 µM | NCI/ADR-RES > 100 µM | OVCAR-5 > 100 µM | SF-539 72.8 µM | SK-MEL-28 > 100 µM | SN12C > 100 µM | T47D > 100 µM | TK-10 40.6 µM | UACC-62 > 100 µM

COc1ccc(-c2c(CN3CCOCC3)sc3nc4ccccc4n23)cc1
inactive: ACHN 36.6 µM | CAKI-1 28.5 µM | HCT-116 9.84 µM | HL-60 9.42 µM | HOP-92 23.1 µM | HT-29 8.41 µM | KM12 9.48 µM | M14 7.53 µM | Malme-3M 3.9 µM | NCI-H226 42.1 µM | NCI-H460 8.41 µM | NCI-H522 2.58 µM | NCI/ADR-RES 4.92 µM | OVCAR-5 32.3 µM | SF-539 16.8 µM | SK-MEL-28 18.6 µM | SN12C 33.4 µM | T47D 18 µM | TK-10 58.6 µM | UACC-62 16.7 µM

Cc1ccc([N+](=O)[O-])c2c(NCC(O)CO)ccnc12 (stereo not given)
inactive: ACHN 57.5 µM | CAKI-1 54 µM | HCT-116 44.4 µM | HL-60 32.7 µM | HOP-92 34.8 µM | HT-29 30.7 µM | KM12 32.2 µM | M14 51.9 µM | Malme-3M 16.4 µM | NCI-H226 73.1 µM | NCI-H460 20 µM | NCI-H522 > 10 µM | NCI/ADR-RES > 100 µM | OVCAR-5 > 100 µM | SF-539 19.3 µM | SK-MEL-28 > 100 µM | SN12C 75.3 µM | T47D 49.7 µM | TK-10 48.2 µM | UACC-62 30.3 µM
